Measured values reported in patent publication US20230348426A1, “OXOPYRROLIDINE FPR2 AGONISTS” (Bristol-Myers Squibb Company, priority 2020, published 2023).

Experiments:
human FPR2 = human FPR2 (Homo sapiens (Human), UniProt P25090); test: FPR2 cyclic adenosine monophosphate (cAMP) assay; format: cell-based; conditions: CHO cells overexpressing human FPR2; forskolin 5 µM; inhibition of cAMP production; read-out: hFPR2 cAMP2 EC50
Summary of the method: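 Inhibition of forskolin-driven (5 µM) cAMP, with 200 µM IBMX, measured in human FPR2-expressing CHO cells, 2,000 per well, 30 min at room temperature; compounds tested 0.020 nM to 100 µM in 1% DMSO. HTRF 665/590 ratio converted to cAMP via calibration curve, then 4-parameter fit.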

human FPR1 = human FPR1 (Homo sapiens (Human), UniProt P21462); test: FPR1 cyclic adenosine monophosphate (cAMP) assay; format: cell-based; conditions: CHO cells overexpressing human FPR1; forskolin 10 µM; inhibition of cAMP production; read-out: hFPR1 cAMP EC50
Summary of the method: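 Human FPR1-expressing CHO cells were used at 4,000 per well, with compound at 0.020 nM–100 µM in 1% DMSO. Potency came from a 4-parameter logistic fit.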

Sequence of human FPR2 (P25090 whole entry): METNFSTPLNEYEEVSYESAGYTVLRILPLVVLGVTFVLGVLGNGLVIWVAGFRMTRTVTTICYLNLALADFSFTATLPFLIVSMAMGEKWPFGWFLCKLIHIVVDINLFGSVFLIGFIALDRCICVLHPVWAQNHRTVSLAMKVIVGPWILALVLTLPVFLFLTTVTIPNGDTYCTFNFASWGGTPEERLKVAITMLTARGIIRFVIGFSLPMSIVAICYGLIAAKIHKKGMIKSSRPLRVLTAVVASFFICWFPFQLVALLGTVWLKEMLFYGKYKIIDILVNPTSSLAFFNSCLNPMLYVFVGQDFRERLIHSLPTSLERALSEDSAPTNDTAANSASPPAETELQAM
Sequence of human FPR1 (P21462 whole entry): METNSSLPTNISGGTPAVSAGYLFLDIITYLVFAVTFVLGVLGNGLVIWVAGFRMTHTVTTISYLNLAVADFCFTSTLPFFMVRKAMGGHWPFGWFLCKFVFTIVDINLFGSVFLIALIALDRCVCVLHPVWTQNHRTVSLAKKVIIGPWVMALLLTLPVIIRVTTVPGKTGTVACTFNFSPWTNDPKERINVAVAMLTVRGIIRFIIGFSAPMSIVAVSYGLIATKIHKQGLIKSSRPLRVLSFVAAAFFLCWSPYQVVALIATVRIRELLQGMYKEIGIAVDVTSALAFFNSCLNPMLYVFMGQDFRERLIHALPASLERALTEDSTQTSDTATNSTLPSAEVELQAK

COc1cc(F)c([C@@H]2CN(c3c(C)ccn(C(CO)C(F)(F)F)c3=O)C(=O)[C@H]2NC(=O)c2ccc(OC(F)F)cc2)c(F)c1 (stereo partly shown) [Example 706]
EC50 (human FPR2): 9.4 nM
EC50 (human FPR1): 19 nM

COc1cc(F)c([C@@H]2CN(c3c(C)ccn(C(CO)C(F)(F)F)c3=O)C(=O)[C@H]2NC(=O)c2ccc(OC(F)F)cc2)c(F)c1 (stereo partly shown) [Example 707]
EC50 (human FPR2): 5.4 nM
EC50 (human FPR1): 130 nM

COc1cc(F)c([C@@H]2CN(c3nccc(OC4CCOC4)c3C(F)(F)F)C(=O)[C@H]2NC(=O)c2ccc(Cl)cc2)c(F)c1 (stereo partly shown) [Example 708]
EC50 (human FPR2): 11 nM
EC50 (human FPR1): > 1000 nM

COc1cc(F)c([C@@H]2CN(c3nccc(OC4CCOC4)c3C(F)(F)F)C(=O)[C@H]2NC(=O)c2ccc(Cl)cc2)c(F)c1 (stereo partly shown) [Example 709]
EC50 (human FPR2): 14 nM
EC50 (human FPR1): 210 nM

COc1cc(F)c([C@@H]2CN(c3cncn(C4CCNC4)c3=O)C(=O)[C@H]2NC(=O)c2ccc(Cl)cc2)c(F)c1 (stereo partly shown) [Example 710]
EC50 (human FPR2): 4 nM
EC50 (human FPR1): 490 nM

COc1cc(C2CCN(CCF)CC2)nc(N2C(=O)[C@@H](NC(=O)c3ccc(OC(F)F)cc3)[C@H](c3c(F)cc(OC)cc3F)[C@@H]2C)c1 [Example 711]
EC50 (human FPR2): 4.2 nM
EC50 (human FPR1): 3400 nM

COc1cc(F)c([C@@H]2CN(c3cncn(C4CCN(C)C4)c3=O)C(=O)[C@H]2NC(=O)c2ccc(Cl)cc2)c(F)c1 (stereo partly shown) [Example 713]
EC50 (human FPR2): 4 nM
EC50 (human FPR1): > 5000 nM

COc1cc(F)c([C@@H]2CN(c3cncn(C4CCNC4)c3=O)C(=O)[C@H]2NC(=O)c2ccc(Cl)cc2)c(F)c1 (stereo partly shown) [Example 714]
EC50 (human FPR2): 6.4 nM
EC50 (human FPR1): 3600 nM

COc1cc(F)c([C@@H]2CN(c3cc(C)cc(C4CCN(CCO)CC4)n3)C(=O)[C@H]2NC(=O)c2ccc(OC(F)F)cc2)c(F)c1 [Example 715]
EC50 (human FPR2): 5.5 nM
EC50 (human FPR1): > 5000 nM

COc1cc(F)c([C@@H]2CN(c3cc(C)cc(C4CCNCC4)n3)C(=O)[C@H]2NC(=O)c2ccc(OC(F)F)cc2)c(F)c1 [Example 716]
EC50 (human FPR2): 5.7 nM
EC50 (human FPR1): > 5000 nM

COc1cc(F)c([C@@H]2CN(c3cccc(C4CCCNC4)n3)C(=O)[C@H]2NC(=O)c2ccc(OC(F)F)cc2)c(F)c1 (stereo partly shown) [Example 718]
EC50 (human FPR2): 0.9 nM
EC50 (human FPR1): 840 nM

COc1cc(F)c([C@@H]2CN(c3cccc(C4CCCNC4)n3)C(=O)[C@H]2NC(=O)c2ccc(OC(F)F)cc2)c(F)c1 (stereo partly shown) [Example 719]
EC50 (human FPR2): 1.4 nM
EC50 (human FPR1): 1900 nM

COc1cc(C2CCN(CC(C)(C)O)CC2)nc(N2C[C@@H](c3c(F)cc(OC)cc3F)[C@H](NC(=O)c3ccc(OC(F)F)cc3)C2=O)c1 [Example 720]
EC50 (human FPR2): 3.9 nM
EC50 (human FPR1): > 5000 nM

COc1cc(F)c([C@@H]2CN(c3cncn(C4CCN(C)C4)c3=O)C(=O)[C@H]2NC(=O)c2ccc(Cl)cc2)c(F)c1 (stereo partly shown) [Example 721]
EC50 (human FPR2): 5.6 nM
EC50 (human FPR1): > 5000 nM
